# Measurements: ChEMBL document CHEMBL5120787, “Selaginellin Inhibits Melanogenesis via the MAPK Signaling Pathway” (J Nat Prod, 2022)
# The source made the active and inactive calls. No cut-off for these calls is given here.
# How the values were obtained:
# [1] = species on record: Danio rerio; assay: Inhibition of melanogenesis in zebra fish embryos assessed as decrease in melanin granule density at 10 to 50 uM measured upto 6 days by inverted microscope analysis; format: functional; details: dose 10-50 µM, time <= 6.0 day
# [2] = test system: B16-F10; assay: Anti-melanogenic activity against mouse B16-F10 cells at 200 nM; format: functional, cell-based
# [3] = test system: MNT-1; assay: Anti-melanogenic activity against human MNT-1 cells cocultured with 24 hrs compound pretreated human fibroblast cells supernatant assessed as inhibition of SCF mRNA expression at 20 uM and measured after 48 hrs by qRT-PCR analysis; format: functional, cell-based; details: time 72.0 hrs
# [4] = test system: MNT-1; assay: Anti-melanogenic activity against human MNT-1 cells cocultured with 24 hrs compound pretreated human fibroblast cells supernatant assessed as inhibition of LIF protein expression at 20 uM and measured after 48 hrs by Western blot analysis; format: functional, cell-based; details: time 72.0 hrs
# [5] = test system: MNT-1; assay: Anti-melanogenic activity against human MNT-1 cells cocultured with 24 hrs compound pretreated human HaCaT cells supernatant assessed as inhibition of LIF protein expression at 20 uM and measured after 48 hrs by Western blot analysis; format: functional, cell-based; details: time 72.0 hrs
# [6] = test system: MNT-1; assay: Anti-melanogenic activity against human MNT-1 cells cocultured with 24 hrs compound pretreated human fibroblast cells supernatant assessed as decrease in melanin content at 20 uM and measured after 48 hrs by Fontana-Masson staining based microscopic analysis; format: functional, cell-based; details: time 72.0 hrs
# [7] = test system: MNT-1; assay: Anti-melanogenic activity against human MNT-1 cells cocultured with 24 hrs compound pretreated human HaCaT cells supernatant assessed as inhibition of SCF mRNA expression at 20 uM and measured after 48 hrs by qRT-PCR analysis; format: functional, cell-based; details: time 72.0 hrs
# [8] = test system: MNT-1; assay: Anti-melanogenic activity against human MNT-1 cells cocultured with 24 hrs compound pretreated human fibroblast cells supernatant assessed as inhibition of LIF mRNA expression at 20 uM and measured after 48 hrs by qRT-PCR analysis; format: functional, cell-based; details: time 72.0 hrs
# [9] = test system: MNT-1; assay: Anti-melanogenic activity against human MNT-1 cells cocultured with 24 hrs compound pretreated human HaCaT cells supernatant assessed as decrease in melanin content at 20 uM and measured after 48 hrs by Fontana-Masson staining based microscopic analysis; format: functional, cell-based; details: time 72.0 hrs
# [10] = test system: MNT-1; assay: Anti-melanogenic activity against human MNT-1 cells cocultured with 24 hrs compound pretreated human HaCaT cells supernatant assessed as inhibition of LIF mRNA expression at 20 uM and measured after 48 hrs by qRT-PCR analysis; format: functional, cell-based; details: time 72.0 hrs
# [11] = test system: MNT-1; assay: Anti-melanogenic activity against human MNT-1 cells cocultured with 24 hrs compound pretreated human HaCaT cells supernatant assessed as inhibition of SCF protein expression at 20 uM and measured after 48 hrs by Western blot analysis; format: functional, cell-based; details: time 72.0 hrs
# [12] = test system: MNT-1; assay: Anti-melanogenic activity against human MNT-1 cells cocultured with 24 hrs compound pretreated human fibroblast cells supernatant assessed as inhibition of SCF protein expression at 20 uM and measured after 48 hrs by Western blot analysis; format: functional, cell-based; details: time 72.0 hrs
# [13] = test system: Fibroblast; assay: Anti-melanogenic activity against UVB-induced human fibroblast cells assessed as decrease in LIF protein level at 10 uM incubated for 24 hrs by Western blot analysis; format: functional, cell-based
# [14] = test system: B16-F10; assay: Inhibition of MAPK signaling pathway in mouse B16-F10 cells assessed as decrease in phosphorylated ERK at 25 to 100 nM for 48 hrs by Western blot analysis; format: cell-based; details: dose 25-100 nM
# [15] = test system: B16-F10; assay: Anti-melanogenic activity against mouse B16-F10 cells assessed as decrease in RAB27A protein level at 25 to 100 nM measured after 48 hrs by Western blot analysis; format: functional, cell-based; details: dose 25-100 nM
# [16] = test system: Fibroblast; assay: Cytotoxicity against human Fibroblast assessed as reduction in cell viability upto 10 uM measured after 48 to 72 hrs by MTT assay; format: toxicity, cell-based; details: time 48-72 hrs
# [17] = test system: B16-F10; assay: Anti-melanogenic activity against mouse B16-F10 cells assessed as decrease in TRP2 protein level at 25 to 100 nM measured after 48 hrs by Western blot analysis; format: functional, cell-based; details: dose 25-100 nM
# [18] = test system: Fibroblast; assay: Anti-melanogenic activity against UVB-induced human fibroblast cells assessed as decrease in SCF protein level at 10 uM incubated for 24 hrs by Western blot analysis; format: functional, cell-based
# [19] = test system: B16-F10; assay: Anti-melanogenic activity against mouse B16-F10 cells assessed as decrease in TRP1 protein level at 25 to 100 nM measured after 48 hrs by Western blot analysis; format: functional, cell-based; details: dose 25-100 nM
# [20] = test system: B16-F10; assay: Inhibition of MAPK signaling pathway in mouse B16-F10 cells assessed as decrease in phosphorylated JNK at 25 to 100 nM for 48 hrs by Western blot analysis; format: cell-based; details: dose 25-100 nM
# [21] = test system: Melan-a; assay: Anti-melanogenic activity against mouse Melan-a cells assessed as alpha-MSH-induced decrease in Tyr activity at 0.01 to 10 uM incubated for 48 hrs by RBFP based fluorescence microscope analysis; format: functional, cell-based; details: dose 0.01-10 µM
# [22] = test system: HaCaT; assay: Anti-melanogenic activity against UVB-induced human HaCaT cells assessed as decrease in SCF protein level at 10 uM incubated for 24 hrs by Western blot analysis; format: functional, cell-based
# [23] = test system: HaCaT; assay: Anti-melanogenic activity against UVB-induced human HaCaT cells assessed as inhibition of LIF mRNA expression at 10 uM incubated for 24 hrs by qRT-PCR analysis; format: functional, cell-based
# [24] = test system: B16-F10; assay: Cytotoxicity against mouse B16-F10 cells assessed as reduction in cell viability upto 10 uM measured after 48 to 72 hrs by MTT assay; format: toxicity, cell-based; details: b16-f10, 10 µM, time 48-72 hrs
# [25] = test system: B16-F10; assay: Anti-melanogenic activity against mouse B16-F10 cells at 50 nM; format: functional, cell-based
# [26] = test system: HaCaT; assay: Anti-melanogenic activity against UVB-induced human HaCaT cells assessed as decrease in LIF protein level at 10 uM incubated for 24 hrs by Western blot analysis; format: functional, cell-based
# [27] = test system: B16-F10; assay: Anti-melanogenic activity against mouse B16-F10 cells assessed as decrease in MITF protein level at 25 to 100 nM measured after 48 hrs by Western blot analysis; format: functional, cell-based; details: dose 25-100 nM
# [28] = biological target: Mushroom tyrosinase (Agaricus bisporus, UniProt O42713+Q00024+C7FF04+C7FF05); assay: Inhibition of mushroom tyrosinase using L-DOPA as substrate preincubated with substrate for 10 mins followed by addition of enzyme and measured for 10 mins
# [29] = test system: MNT-1; assay: Anti-melanogenic activity against human MNT-1 cells assessed as decrease in melanin content at 10 uM incubated for 48 hrs by Fontana-Masson staining based microscopic analysis; format: functional, cell-based
# [30] = test system: Melan-a; assay: Anti-melanogenic activity against mouse Melan-a cells assessed as decrease in alpha-MSH-induced melanin content at 0.01 to 10 uM incubated for 48 hrs by Fontana-Masson staining based inverted microscopic analysis; format: functional, cell-based; details: dose 0.01-10 µM
# [31] = test system: Fibroblast; assay: Anti-melanogenic activity against UVB-induced human fibroblast cells assessed as inhibition of SCF mRNA expression at 10 uM incubated for 24 hrs by qRT-PCR analysis; format: functional, cell-based
# [32] = test system: B16-F10; assay: Anti-melanogenic activity against mouse B16-F10 cells assessed as decrease in melanin content at 25 to 100 nM incubated for 48 hrs by Fontana-Masson staining based inverted microscopic analysis; format: functional, cell-based; details: dose 25-100 nM
# [33] = Cytotoxicity against mouse Melan-a cells assessed as reduction in cell viability upto 10 uM measured after 48 to 72 hrs by MTT assay; format: toxicity, cell-based; details: time 48-72 hrs
# [34] = test system: Fibroblast; assay: Anti-melanogenic activity against UVB-induced human fibroblast cells assessed as inhibition of LIF mRNA expression at 10 uM incubated for 24 hrs by qRT-PCR analysis; format: functional, cell-based
# [35] = test system: HaCaT; assay: Cytotoxicity against human HaCaT cells assessed as reduction in cell viability upto 10 uM measured after 48 to 72 hrs by MTT assay; format: toxicity, cell-based; details: time 48-72 hrs
# [36] = test system: MNT-1; assay: Cytotoxicity against human MNT-1 cells assessed as reduction in cell viability upto 10 uM measured after 48 to 72 hrs by MTT assay; format: toxicity, cell-based; details: mnt-1, 10 µM, time 48-72 hrs
# [37] = test system: B16-F10; assay: Anti-melanogenic activity against mouse B16-F10 cells assessed as decrease in TYR protein level at 25 to 100 nM measured after 48 hrs by Western blot analysis; format: functional, cell-based; details: dose 25-100 nM
# [38] = test system: MNT-1; assay: Anti-melanogenic activity against UVB-induced human MNT-1 cells cocultured with 24 hrs human HaCaT cells supernatant assessed as decrease in melanin content at 10 uM incubated for 48 hrs by Fontana-Masson staining based microscopic analysis; format: functional, cell-based; details: time 72.0 hrs
# [39] = test system: B16-F10; assay: Anti-melanogenic activity against mouse B16-F10 cells assessed as decrease in […] at 25 to 100 nM incubated for 48 hrs by RBFP based fluorescence microscope analysis; format: functional, cell-based; details: dose 25-100 nM
# [40] = test system: B16-F10; assay: Anti-melanogenic activity against mouse B16-F10 cells assessed as decrease in […] at 25 to 100 nM incubated for 48 hrs; format: functional, cell-based; details: dose 25-100 nM
# [41] = test system: Melan-a; assay: Anti-melanogenic activity against mouse Melan-a cells assessed as decrease in alpha-MSH-induced Tyr activity at 0.01 to 10 uM incubated for 48 hrs; format: functional, cell-based; details: dose 0.01-10 µM
# [42] = test system: HaCaT; assay: Anti-melanogenic activity against UVB-induced human HaCaT cells assessed as inhibition of SCF mRNA expression at 10 uM incubated for 24 hrs by qRT-PCR analysis; format: functional, cell-based
# [43] = test system: B16-F10; assay: Inhibition of MAPK signaling pathway in mouse B16-F10 cells assessed as decrease in phosphorylated p38 at 25 to 100 nM for 48 hrs by Western blot analysis; format: cell-based; details: dose 25-100 nM
# [44] = test system: MNT-1; assay: Anti-melanogenic activity against UVB-induced human MNT-1 cells cocultured with 24 hrs human fibroblast cells supernatant assessed as decrease in melanin content at 10 uM incubated for 48 hrs by Fontana-Masson staining based microscopic analysis; format: functional, cell-based; details: time 72.0 hrs
compound,measurement,setting,value
NC(=S)Nc1ccccc1,inhibition,[1],Active
O=c1cc(CO)occ1O,Activity,[2],Active
COc1ccc(-c2cc(=O)c3c(OC)c(OC)c(OC)c(OC)c3o2)cc1OC,Activity,[3],Active
same,Activity,[4],Active
same,Activity,[5],Active
same,Activity,[6],Active
same,Activity,[7],Active
same,Activity,[8],Active
same,Activity,[9],Active
same,Activity,[10],Active
same,Activity,[11],Active
same,Activity,[12],Active
O=C1C=CC(=C(c2ccc(O)cc2)c2c(-c3ccc(O)cc3)ccc(CO)c2C#Cc2ccc(O)cc2)C=C1,Activity,[13],Active
same,inhibition,[14],Active
same,Activity,[15],Active
same,Activity,[16],Non-Toxic
same,Activity,[17],Active
same,Activity,[18],Active
same,Activity,[19],Active
same,inhibition,[20],Active
same,Activity,[21],Active
same,Activity,[22],Active
same,Activity,[23],Active
same,Activity,[24],Non-Toxic
same,Activity,[25],Active
same,Activity,[26],Active
same,Activity,[27],Active
same,IC50,[28],9.24 µM
same,Activity,[29],Active
same,Activity,[30],Active
same,Activity,[31],Active
same,Activity,[32],Active
same,Activity,[33],Non-Toxic
same,Activity,[34],Active
same,Activity,[35],Non-Toxic
same,Activity,[36],Non-Toxic
same,Activity,[37],Active
same,Activity,[38],Active
same,Activity,[39],Active
same,Activity,[40],Active
same,Activity,[41],Active
same,Activity,[42],Active
same,inhibition,[43],Active
same,Activity,[44],Active
